Results reported in patent EP3064205A1, “Therapeutic use of isomeric forms of 2-(4-chlorophenyl)quinolin-4-yl)(piperidin-2-yl)methanol” (Glionova AB, priority 2015, dated 2016).
Like-named read-outs stand apart in the source and are kept apart here.

Columns and labels:
[1] = system: RXF 1183; assay: 3D clonogenic assay (PDX); type: cell-based; conditions: Homo sapiens, RXF 1183, Renal
Description: (§1) The anti-tumor efficacy of S1 in the patient-derived tumor xenograft (PDX) tumor panel was assessed, where the efficacy of S1 in PDX tumor panel in the 96-well format, in 10 concentrations in duplicate was performed. Colony formation of tumor cell suspensions in a soft-agar matrix was observed and quantified. The output is IC50 values and dose response-relationships based on number of colonies in control and treatment wells, as identified by an automated image analysis algorithm. Stock solution of S1 was prepared in 100% DMSO at 10 mM concentration (stored at -20°C) and reused for each experiment. Compound final test concentrations: Dilution series ½ i.e.: 50µM, 15, 5, 1.5, 0.5, 0.15, 0.05, 0.015, 0.005 and 0.0015.
(§2) Tumor xenografts (also referred to as patient-derived tumor xenografts) were passaged as subcutaneous xenografts in NMRI nu/nu mice. Tumor xenograft were removed from mice under sterile conditions, mechanically disaggregated and subsequently incubated with an enzyme cocktail consisting of collagenase type IV (41 U/mL), DNase I (125 U/mL), hyaluronidase type III (100 U/mL) and dispase II (1.0 U/mL) in RPMI 1640 medium at 37°C for 60 - 120 minutes. Cells were passed through sieves of 100 µm and 40 µm mesh size and washed with RPMI 1640 medium. The percentage of viable cells was determined in a Neubauer-hemocytometer using trypan blue exclusion. Aliquots of the cells were frozen down, and stored in liquid nitrogen.
(§3) The clonogenic assay test was carried out in 96 well plate format. For each test a frozen aliquot of tumor cells prepared from tumor xenografts was thawed and assay plates were prepared as follows: each test well contained 3 layers of equal volume, 2 layers of semi-solid medium (bottom and top layer), and one layer of medium supernatant, with or without test compound. The bottom layer consisted of 0.05 mL/well Iscove's Modified Dulbecco's Medium (Invitrogen), supplemented with 20% (v/v) fetal calf serum (Sigma), 0.01% (w/v) gentamicin (Invitrogen) and 0.75% (w/v) agar (BD Biosciences). Tumor cells were added to 0.05 mL of the same culture medium supplemented with 0.4% (w/v) agar and plated onto the bottom layer. After 24 h, test compounds were added after serial dilution in DMSO and transfer in cell culture medium, and left on the cells for the duration of the experiment (continuous exposure, 0.05 mL drug overlay). Every dish included six untreated control wells and drug-treated groups in duplicate at 10 concentrations. Cultures were incubated at 37 °C and 7.5% CO2 in a humidified atmosphere for 8 to 13 days and monitored closely for colony growth using an inverted microscope. Within this period, ex vivo tumor growth lead to the formation of colonies with a diameter of >50 µm. […]

[2] = system: MAXF 574; assay: 3D clonogenic assay (PDX); type: cell-based; conditions: Homo sapiens, MAXF 574, Breast
Description: as §1, §2, §3

IC50 ([1]; read-out: abs. IC50): 50 µM
IC50 ([1]; read-out: rel. IC50): 50 µM
IC50 ([2]; read-out: abs. IC50): 50 µM
IC50 ([2]; read-out: rel. IC50): 50 µM
SMILES: O[C@H](c1cc(-c2ccc(Cl)cc2)nc2ccccc12)[C@@H]1CCCCN1 [S1, (R)-(2-(4-chlorophenyl)quinolin-4-yl)((S)-piperidin-2-yl)methanol]
